Measurements reported in US20110009628A1, “Compounds and Compositions for Modulating Lipid Levels and Methods of Preparing Same” (priority 2009, published 2011).

Test system: LDLR mRNA expression in HepG2 cells
Experiment: LDLR mRNA expression in HepG2 cells, quantitative real-time RT-PCR (Example 7)
Type: cell-based, human
Conditions: dose less than or equal to 10 μM, 24 hours
Protocol: In yet another experiment, HepG2 cells were treated with various compounds for 24 hours at the indicated doses. Total RNA was isolated and 2 μg was used to generate cDNA in a reaction containing random primers and M-MLV at 37° C. for 1 hour in a volume of 25 μL. Real-time PCR was performed on the cDNA using MCEP REALPLEX 2 SYSTEM (Eppendorf) and Universal MasterMix (Applied Biosystems). Human LDLR and GAPDH Pre-Developed TaqMan Assay Reagents (Applied Biosystems) were used to assess the levels of mRNA expressions in HepG2. The levels of LDLR mRNA were normalized to that of GAPDH. Each RNA samples was assayed in triplicate. The abundance of LDLR mRNA in untreated cells was defined as 1, and the amounts of LDLR mRNA from compound-treated cells were plotted relative to that value in FIG. 2B. The data shown are mean±s.d.
Activities of some compounds of Formulas I, II and EE on LDLR mRNA expression were determined. HepG2 cells were treated with new compounds individually at a dose less than or equal to 10 μM for 24 hours. […] In these experiments, berberine chloride was included for comparison.

Row | Compound | Activity on LDLR mRNA expression (Fold of control)
1 | COc1ccc2c(c1OS(=O)(=O)c1ccc(-c3ccccc3)cc1)CN1CCc3cc4c(cc3C1C2)OCO4 (centres unmarked) [Compound 37, 10-methoxy-5,6,7,8,13,13a-hexahydro-2H-1,3-dioxolano[4,5-g]isoquinolino[3,2-a]isoquinolin-9-yl 4-phenylbenzenesulfonate] | 2.47 ± 0.07 Fold of control
2 | CCOC(=O)Oc1c(OC)ccc2c1CN1CCc3cc4c(cc3C1C2)OCO4 (centres unmarked) [Compound 48, 10-methoxy-5,6,7,8,13,13a-hexahydro-2H-1,3-dioxolano[4,5-g]isoquinolino[3,2-a]isoquinolin-9-yl ethoxyformate] | 1.45 ± 0.15 Fold of control
3 | COc1ccc2c(c1OS(=O)(=O)c1ccccc1F)CN1CCc3cc4c(cc3C1C2)OCO4 (centres unmarked) [Compound 51, 10-methoxy-5,6,7,8,13,13a-hexahydro-2H-1,3-dioxolano[4,5-g]isoquinolino[3,2-a]isoquinolin-9-yl 2-fluorobenzenesulfonate] | 3.79 ± 0.33 Fold of control
4 | COc1ccc2c(c1OS(=O)(=O)c1cccc(F)c1)CN1CCc3cc4c(cc3C1C2)OCO4 (centres unmarked) [Compound 52, 10-methoxy-5,6,7,8,13,13a-hexahydro-2H-1,3-dioxolano[4,5-g]isoquinolino[3,2-a]isoquinolin-9-yl 3-fluorobenzenesulfonate] | 3.63 ± 0.17 Fold of control
5 | COc1ccc2c(c1OS(=O)(=O)c1ccc(F)c(F)c1)CN1CCc3cc4c(cc3C1C2)OCO4 (centres unmarked) [Compound 53, 10-methoxy-5,6,7,8,13,13a-hexahydro-2H-1,3-dioxolano[4,5-g]isoquinolino[3,2-a]isoquinolin-9-yl 3,4-difluorobenzenesulfonate] | 3.96 ± 0.40 Fold of control
6 | COc1ccc2c(c1OS(=O)(=O)c1ccc(C)cc1)CN1CCc3cc4c(cc3C1C2)OCO4 (centres unmarked) [Compound 57, 10-methoxy-5,6,7,8,13,13a-hexahydro-2H-1,3-dioxolano[4,5-g]isoquinolino[3,2-a]isoquinolin-9-yl 4-methylbenzenesulfonate] | 2.62 ± 0.17 Fold of control
7 | COc1ccc2c(c1OS(=O)(=O)c1ccc(F)cc1)CN1CCc3cc4c(cc3C1C2)OCO4 (centres unmarked) [Compound 58, 10-methoxy-5,6,7,8,13,13a-hexahydro-2H-1,3-dioxolano[4,5-g]isoquinolino[3,2-a]isoquinolin-9-yl 4-fluorobenzenesulfonate] | 3.90 ± 0.01 Fold of control
8 | COc1ccc2c(c1OS(=O)(=O)c1ccc(F)cc1F)CN1CCc3cc4c(cc3C1C2)OCO4 (centres unmarked) [Compound 59, 10-methoxy-5,6,7,8,13,13a-hexahydro-2H-1,3-dioxolano[4,5-g]isoquinolino[3,2-a]isoquinolin-9-yl 2,4-difluorobenzenesulfonate] | 3.73 ± 0.10 Fold of control
9 | COc1ccc2c(c1OS(=O)(=O)c1cccc(C)c1)CN1CCc3cc4c(cc3C1C2)OCO4 (centres unmarked) [Compound 60, 10-methoxy-5,6,7,8,13,13a-hexahydro-2H-1,3-dioxolano[4,5-g]isoquinolino[3,2-a]isoquinolin-9-yl 3-methylbenzenesulfonate] | 3.46 ± 0.75 Fold of control
10 | COc1ccc2c(c1OC(=O)Nc1ccccc1)CN1CCc3cc4c(cc3C1C2)OCO4 (centres unmarked) [Compound 61, (10-methoxy(5,6,7,8,13,13a-hexahydro-2H-1,3-dioxolano[4,5-g]isoquinolino[3,2-a]isoquinolin-9-yloxy))-N-benzamide] | 1.33 ± 0.53 Fold of control
11 | COc1ccc2c(c1OS(=O)(=O)c1cccc([N+](=O)[O-])c1)CN1CCc3cc4c(cc3C1C2)OCO4 (centres unmarked) [Compound 63, 10-methoxy-5,6,7,8,13,13a-hexahydro-2H-1,3-dioxolano[4,5-g]isoquinolino[3,2-a]isoquinolin-9-yl 3-nitrobenzenesulfonate] | 2.94 ± 0.13 Fold of control
12 | COc1cc2c(cc1OC)C1Cc3ccc(OC)c(OCc4ccccc4)c3CN1CC2 (centres unmarked) [Compound 64, 2,3,10-trimethoxy-9-(phenylmethoxy)-5,6,7,8,13,13a-hexahydroisoquinolino[3,2-a]isoquinoline] | 2.82 ± 0.45 Fold of control
13 | COc1ccc2c(c1OS(=O)(=O)c1ccc([N+](=O)[O-])cc1)CN1CCc3cc4c(cc3C1C2)OCO4 (centres unmarked) [Compound 65, 10-methoxy-5,6,7,8,13,13a-hexahydro-2H-1,3-dioxolano[4,5-g]isoquinolino[3,2-a]isoquinolin-9-yl 4-nitrobenzenesulfonate] | 2.58 ± 0.46 Fold of control
14 | COc1ccc2c(c1OS(=O)(=O)c1cccc3cccnc13)CN1CCc3cc4c(cc3C1C2)OCO4 (centres unmarked) [Compound 66, 10-methoxy-5,6,7,8,13,13a-hexahydro-2H-1,3-dioxolano[4,5-g]isoquinolino[3,2-a]isoquinolin-9-yl quinoline-8-sulfonate] | 2.54 ± 0.06 Fold of control
15 | COc1ccc2c(c1OS(=O)(=O)c1ccc(C(F)(F)F)cc1)CN1CCc3cc4c(cc3C1C2)OCO4 (centres unmarked) [Compound 85, 9-(4-trifluoromethyl-benzenesulfonyloxy)-10-methoxy-5,8,13,13a-tetrahydro-6H-[1,3]dioxolo[4,5-g]isoquino[3,2-a]isoquinoline] | 1.42 ± 0.30 Fold of control
16 | COc1ccc(S(=O)(=O)Oc2c(OC)ccc3c2CN2CCc4cc5c(cc4C2C3)OCO5)cc1OC (centres unmarked) [Compound 86, 9-(3,4-dimethoxy-benzenesulfonyloxy)-10-methoxy-5,8,13,13a-tetrahydro-6H-[1,3]dioxolo[4,5-g]isoquino[3,2-a]isoquinoline] | 2.48 ± 0.62 Fold of control
17 | COc1ccc2c(c1OCCN1CCOCC1)CN1CCc3cc4c(cc3C1C2)OCO4 (centres unmarked) [Compound 88, 9-O-2-(1′-morpholine-ethyl)-10-methoxy-5,8,13,13a-tetrahydro-6H-[1,3]dioxolo[4,5-g]isoquino[3,2-a]isoquinoline] | 1.93 ± 0.24 Fold of control
18 | COc1ccc2c(c1OS(=O)(=O)c1cccc3c(N(C)C)cccc13)CN1CCc3cc4c(cc3C1C2)OCO4 (centres unmarked) [Compound 89, 10-methoxy-5,6,7,8,13,13a-hexahydro-2H-1,3-dioxolano [4,5-g]isoquinolino[3,2-a] isoquinolin-9-yl 5-(dimethylamino)naphthalene-sulfonate] | 1.92 ± 0.40 Fold of control
19 | COc1ccc2c(c1OS(=O)(=O)C(F)(F)F)CN1CCc3cc4c(cc3C1C2)OCO4 (centres unmarked) [Compound 90, 10-methoxy-5,6,7,8,13,13a-hexahydro-2H-1,3-dioxolano[4,5-g] isoquinolino[3,2-a] isoquinolin-9-yl (trifluoromethyl)sulfonate] | 1.21 ± 0.07 Fold of control
20 | COc1ccc2c(c1)CN1CCc3cc4c(cc3C1C2)OCO4 (centres unmarked) [Compound 92, 10-methoxy-5,6,7,8,13,13a-hexahydro-2H-1,3-dioxolano[4,5-g]isoquinolino[3,2-a]isoquinoline] | 1.52 ± 0.07 Fold of control
21 | COc1ccc2c(c1OS(=O)(=O)c1sc(NC(C)=O)nc1C)CN1CCc3cc4c(cc3C1C2)OCO4 (centres unmarked) [Compound 93, 10-methoxy-5,6,7,8,13,13a-hexahydro-2H-1,3-dioxolano [4,5-g]isoquinolino[3,2-a]isoquinolin-9-yl 2-(acetylamino)-4-methyl-1,3-thiazole-5-sulfonate] | 1.42 ± 0.16 Fold of control
22 | COc1ccc2c(c1Oc1ncc([N+](=O)[O-])cc1C)CN1CCc3cc4c(cc3C1C2)OCO4 (centres unmarked) [Compound 94, 10-methoxy-9-(3-methyl-5-nitro(2-pyridyl)oxy)-5,6,7,8,13,13a-hexahydro-2H-1,3-dioxolano[4,5-g]isoquinolino[3,2-a]isoquinoline] | 1.22 ± 0.18 Fold of control
23 | COc1cc2c(cc1OCc1ccccc1)CCN1Cc3c(ccc(OC)c3OS(=O)(=O)c3ccccc3)CC21 (centres unmarked) [Compound 95, 2,10-dimethoxy-3-(phenylmethoxy)-5,6,7,8,13,13a-hexahydroisoquinolino[2,1-b]isoquinolin-9-yl benzenesulfonate] | 1.43 ± 0.04 Fold of control
24 | COc1ccc2c(c1Oc1ccc([N+](=O)[O-])cn1)CN1CCc3cc4c(cc3C1C2)OCO4 (centres unmarked) [Compound 96, 10-methoxy-9-(5-nitro(2-pyridyl)oxy)-5,6,7,8,13,13a-hexahydro-2H-1,3-dioxolano [4,5-g]isoquinolino[3,2-a]isoquinoline] | 1.33 ± 0.05 Fold of control
25 | COc1ccc2c(c1Oc1ncc(N)cc1C)CN1CCc3cc4c(cc3C1C2)OCO4 (centres unmarked) [Compound 100, 6-(10-methoxy(5,6,7,8,13,13a-hexahydro-2H-1,3-dioxolano[4,5-g]isoquinolino[3,2-a]isoquinolin-9-yloxy))-5-methyl-3-pyridylamine] | 1.44 ± 0.59 Fold of control
26 | COc1ccc2c(c1OS(=O)(=O)c1cccnc1)CN1CCc3cc4c(cc3C1C2)OCO4 (centres unmarked) [Compound 101, 10-methoxy-5,6,7,8,13,13a-hexahydro-2H-1,3-dioxolano [4,5-g]isoquinolino[3,2-a]isoquinolin-9-yl pyridine-3-sulfonate] | 1.97 ± 0.00 Fold of control
